The values that follow come from US20020183340A1, “4-(4'-HYDROXYPHENYL) AMINO-6,7-DIMETHOXYQUINAZOLINE TO PREVENT DEVELOPMENT OF COLORECTAL CANCER” (Parker Hughes Institute, priority 1999, published 2002).

This assay concerns APC^min mouse model. In words: APC^min mouse model of colorectal cancer development (chow supplemented with compound). The assay is classed as in vivo, mice. The settings on record: for Probability Of Survival: APC^min mice fed chow with 0.3 wt % compound once a week from six weeks of age, n = 23. The source says:
An APC^min mouse model was used to test the ability of 4-(4′-hydroxyphenyl)-amino-6,7-dimethoxyquinazoline to prevent the development of colorectal cancer. A total of 23 APC^min mice were fed rodent chow, which was supplemented with 0.3 wt % 4-(4′-hydroxyphenyl)-amino-6,7-dimethoxyquinazoline once a week starting at six weeks of age. A control group of 30 mice were fed rodent chow without 4-(4′-hydroxyphenyl)-amino-6,7-dimethoxyquinazoline. The health status of the mice was monitored for thirty weeks. Table 1 below describes the Probability of Survival for each group of mice over a period of 210 days.

On to `COc1cc2ncnc(Nc3ccc(O)cc3)c2cc1OC` [4-(4′-hydroxyphenyl)-amino-6,7-dimethoxyquinazoline], for which the “Probability Of Survival” value (age 90 days) came out at 100 ± 0; the “Probability Of Survival” value (age 120 days) is reported as 94 ± 5; the “Probability Of Survival” value (age 150 days) amounted to 81 ± 10; the “Probability Of Survival” value (age 180 days) turned out to be 68 ± 12; the “Probability Of Survival” value (age 210 days) turned out to be 68 ± 12. The mice still alive (by thirty weeks of age, mice fed compound (17% of the control mice)) came out at 68%.
